Experimental findings from patent publication US20240279215A1 (Cytokinetics, Incorporated, priority 2022, published 2024) are described below.

Structures can show the parent of a compound that is named as a salt.

human NAMPT, sequence (P43490 whole entry): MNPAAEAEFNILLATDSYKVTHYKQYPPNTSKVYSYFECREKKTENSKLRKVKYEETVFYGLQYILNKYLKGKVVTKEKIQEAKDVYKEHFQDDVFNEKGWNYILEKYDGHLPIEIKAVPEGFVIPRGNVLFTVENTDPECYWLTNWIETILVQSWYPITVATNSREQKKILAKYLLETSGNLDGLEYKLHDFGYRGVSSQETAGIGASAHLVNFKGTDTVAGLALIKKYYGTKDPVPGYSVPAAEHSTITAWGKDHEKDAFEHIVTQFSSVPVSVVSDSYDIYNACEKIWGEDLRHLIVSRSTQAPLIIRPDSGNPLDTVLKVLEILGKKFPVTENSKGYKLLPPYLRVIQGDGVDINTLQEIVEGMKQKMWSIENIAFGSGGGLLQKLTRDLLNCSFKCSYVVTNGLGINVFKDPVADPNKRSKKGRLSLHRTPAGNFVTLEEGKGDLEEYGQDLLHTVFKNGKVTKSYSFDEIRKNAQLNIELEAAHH

The assay concerns the target human NAMPT (Homo sapiens (Human), UniProt P43490). The assay is described as follows: NMN fluorescence biochemical assay (human recombinant NAMPT enzyme assay). In outline:
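NMN formed was detected by fluorescence (Ex/Em 355/460 nm) after acetophenone, KOH and formic acid derivatization. The cell-free reaction ran 60 min at ambient temperature with 6 nM human NAMPT, 150 μM nicotinamide, 20 μM PRPP, 2.5 mM ATP, pH 7.2 HEPES, and compound dose responses.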
With `Cc1ccc(C(=O)NCc2ccc(NC(=O)OCc3ccc(F)cc3)cc2)cn1` [Compound 227, 4-fluorobenzyl (4-((6-methylnicotinamido)methyl)phenyl)carbamate], the “AC1.4 Human” value was 2.11 µM and the EC50 stood at 3.47 µM.

For `CN1CC[C@H](NCc2ccc(NC(=O)OCc3ccc(Cl)cc3)cc2)C1=O` [Compound 228, 4-chlorobenzyl (S)-(4-(((1-methyl-2-oxopyrrolidin-3-yl)amino)methyl)phenyl)carbamate], the “AC1.4 Human” value was found to be 2.11 µM and the EC50 turned out to be 21.4 µM.

Turning to `CO[C@@H]1CCCN(C(=O)Cc2ccc(NC(=O)OCc3ccc(Cl)cc3)cc2)C1` [Compound 229, (4-chlorophenyl)methyl N-(4-{2-[(3R)-3-methoxypiperidin-1-yl]-2-oxoethyl}phenyl)carbamate], the “AC1.4 Human” value was found to be 2.13 µM and the EC50 was determined as 12.8 µM.

As for `C[C@H](NC(=O)[C@H]1C[C@@H]2[C@H](C1)C2(F)F)c1ccc(NC(=O)OCc2cnco2)cc1` [Compound 230, 1,3-oxazol-5-ylmethyl N-{4-[(1S)-1-{[(1R,3r,5S)-6,6-difluorobicyclo[3.1.0]hexan-3-yl]formamido}ethyl]phenyl}carbamate], the “AC1.4 Human” value turned out to be 2.13 µM and the EC50 turned out to be 15.3 µM.

With `O=C(Nc1ccc(CC2CCNCC2)cc1)OCc1ccc(Cl)cc1` [Compound 231, 4-chlorobenzyl (4-(piperidin-4-ylmethyl)phenyl)carbamate hydrochloride], the “AC1.4 Human” value was 2.13 µM and the EC50 came to 33.8 µM.

For the compound `O=C(Nc1ccc(Cc2ccccn2)cc1)OCc1ccc(Cl)cc1` [Compound 233, 4-chlorobenzyl (4-(pyridin-2-ylmethyl)phenyl)carbamate], the “AC1.4 Human” value came out at 2.18 µM and the 50% effective concentration (EC50) turned out to be 7.8 µM.

`CC(C)c1ccc(C(=O)NCc2ccc(NC(=O)OCc3ccc(Cl)cc3)cc2)cn1` [Compound 234, (4-chlorophenyl)methyl N-(4-{[(6-isopropylpyridin-3-yl)formamido]methyl}phenyl)carbamate]: the “AC1.4 Human” value amounted to 2.19 µM and the EC50 worked out at 3.38 µM.

Take `O=C1CN(C(=O)Cc2ccc(NC(=O)OCc3ccc(Cl)cc3)cc2)CCN1` [Compound 235, (4-chlorophenyl)methyl N-{4-[2-oxo-2-(3-oxopiperazin-1-yl)ethyl]phenyl}carbamate]: the “AC1.4 Human” value worked out at 2.22 µM and the EC50 came to 44.9 µM.

Take `O=C1CN(C2CCC2)[C@@H](c2ccc(NC(=O)OCc3ccc(Cl)cc3)cc2)CN1` [Compound 236, 4-chlorobenzyl (S)-(4-(1-cyclobutyl-5-oxopiperazin-2-yl)phenyl)carbamate]: the “AC1.4 Human” value was found to be 2.25 µM and the concentration for a half-maximal effect (EC50) was 50.6 µM.

On to `O=C(Nc1ccc(CC(=O)N2CCC[C@@H](O)C2)cc1)OCc1ccc(Cl)cc1` [Compound 237, (4-chlorophenyl)methyl N-(4-{2-[(3R)-3-hydroxypiperidin-1-yl]-2-oxoethyl}phenyl)carbamate], for which the “AC1.4 Human” value is 2.25 µM and the EC50 worked out at 32.3 µM.

In the case of `O=C(Nc1ccc(CNC(=O)c2ccnn2C2CCOCC2)cc1)OCc1ccc(Cl)cc1` [Compound 238, (4-chlorophenyl)methyl N-[4-({[2-(oxan-4-yl)pyrazol-3-yl]formamido}methyl)phenyl]carbamate], the “AC1.4 Human” value worked out at 2.29 µM and the half-maximal effective concentration (EC50) came out at 10.6 µM.

For `O=C(Nc1ccc(CNC(=O)c2ccc(C(F)(F)F)nc2)cc1)OCc1ccc(Cl)cc1` [Compound 239, (4-chlorophenyl)methyl N-[4-({[6-(trifluoromethyl)pyridin-3-yl]formamido}methyl)phenyl]carbamate], the “AC1.4 Human” value turned out to be 2.32 µM and the EC50 was 1.89 µM.

Turning to `CC1CCN(C(=O)Cc2ccc(NC(=O)OCc3ccc(Cl)cc3)cc2)CC1` [Compound 240, (4-chlorophenyl)methyl N-{4-[2-(4-methylpiperidin-1-yl)-2-oxoethyl]phenyl}carbamate], the “AC1.4 Human” value was determined as 2.33 µM and the EC50 came to 2.73 µM.

For `Cc1ocnc1C(=O)N[C@@H](C)c1ccc(NC(=O)OCc2ccc(Cl)cc2)cc1` [Compound 241, (4-chlorophenyl)methyl N-{4-[(1S)-1-[(5-methyl-1,3-oxazol-4-yl)formamido]ethyl]phenyl}carbamate], the “AC1.4 Human” value came out at 2.37 µM and the EC50 worked out at 11.8 µM.

`O=C(Nc1ccc(CN2CCOC2=O)cc1)OCc1ccc(Cl)cc1` [Compound 242, (4-chlorophenyl)methyl N-{4-[(2-oxo-1,3-oxazolidin-3-yl)methyl]phenyl}carbamate]: the “AC1.4 Human” value amounted to 2.38 µM and the EC50 came out at 19.8 µM.

For `Cc1coc(C(=O)N[C@@H](C)c2ccc(NC(=O)OCc3ccc(Cl)cc3)cc2)n1` [Compound 243, 4-chlorobenzyl (S)-(4-(1-(4-methyloxazole-2-carboxamido)ethyl)phenyl)carbamate], the “AC1.4 Human” value was 2.38 µM and the concentration giving a half-maximal response (EC50) is 26.3 µM.

Turning to `C[C@H]1CCN(C(=O)Cc2ccc(NC(=O)OCc3ccc(Cl)cc3)cc2)C1` [Compound 244, (4-chlorophenyl)methyl N-(4-{2-[(3S)-3-methylpyrrolidin-1-yl]-2-oxoethyl}phenyl)carbamate], the “AC1.4 Human” value amounted to 2.39 µM and the concentration giving a half-maximal response (EC50) is 5.67 µM.

With `COc1nc(C)ccc1C(=O)NCc1ccc(NC(=O)OCc2ccc(Cl)cc2)cc1` [Compound 245, (4-chlorophenyl)methyl N-(4-{[(2-methoxy-6-methylpyridin-3-yl)formamido]methyl}phenyl)carbamate], the “AC1.4 Human” value came out at 2.39 µM and the EC50 was found to be 6.35 µM.

Take `C[C@H](NC(=O)c1cnco1)c1ccc(NC(=O)OCc2ccc(Cl)cc2)cc1` [Compound 246, 4-chlorobenzyl (S)-(4-(1-(oxazole-5-carboxamido)ethyl)phenyl)carbamate]: the “AC1.4 Human” value stood at 2.43 µM and the EC50 was determined as 6.14 µM.

Turning to `CC(O)(c1ccncc1)c1ccc(NC(=O)OCc2ccc(Cl)cc2)cc1` (stereo not drawn) [Compound 247, 4-chlorobenzyl (4-(1-hydroxy-1-(pyridin-4-yl)ethyl)phenyl)carbamate], the “AC1.4 Human” value was determined as 2.45 µM and the EC50 is 16.5 µM.

Take `O=C(Nc1ccc(CNC(=O)c2cccnn2)cc1)OCc1ccc(Cl)cc1` [Compound 248, (4-chlorophenyl)methyl N-{4-[(pyridazin-3-ylformamido)methyl]phenyl}carbamate]: the “AC1.4 Human” value came to 2.51 µM and the EC50 worked out at 2.4 µM.

Take `CN(Cc1ccc(NC(=O)OCc2ccc(Cl)cc2)cc1)C(=O)c1cncc(F)c1` [Compound 250, (4-chlorophenyl)methyl N-(4-{[1-(5-fluoropyridin-3-yl)-N-methylformamido]methyl}phenyl)carbamate]: the “AC1.4 Human” value was 2.58 µM and the EC50 stood at 21.3 µM.

Take `Cc1nocc1C(=O)NCc1ccc(NC(=O)OCc2ccc(Cl)cc2)cc1` [Compound 251, (4-chlorophenyl)methyl N-(4-{[(3-methyl-1,2-oxazol-4-yl)formamido]methyl}phenyl)carbamate]: the “AC1.4 Human” value turned out to be 2.59 µM and the EC50 worked out at 11 µM.

With `O=C(Nc1ccc(CCC2CCNCC2)cc1)OCc1cnco1` [Compound 252, oxazol-5-ylmethyl (4-(2-(piperidin-4-yl)ethyl)phenyl)carbamate hydrochloride], the “AC1.4 Human” value is 2.60 µM and the EC50 was 26.2 µM.

Broadly, the EC50 is the concentration at which the effect is half-maximal.
